Patent US5380834A, “Immuno-suppressive agent” (Ishihara Sangyo Kaisha Ltd., priority 1992, dated 1995)
≈ marks a conversion by molar mass, not a printed value.

Legend:
[1] = tested on: IgE antibody production from murine spleen B cells; assay: Effects on the IgE antibody production from murine spleen cells (LPS + IL4); assay type: cell-based, BALB/c mouse; conditions: Mus musculus, B-cell, 168 h; spleen B cells, LPS 10 μg/ml, IL4 100 U/ml, 7 days, enzyme-immunoassay; read-out: IC50 value, IgE antibody production
[2] = tested on: murine mixed lymphocyte reaction (spleen cells of BALB/c and C57BL/6 mice); assay: Effects on the murine mixed lymphocyte reaction (3H-TdR uptake); assay type: cell-based; conditions: Mus musculus, BALB/c + C57BL/6 spleen cells, 48 hours, read-out: IC50 value, b (murine mixed lymphocyte reaction)
[3] = tested on: IgGl antibody production from murine spleen B cells; assay: Effects on the IgGl antibody production from murine spleen cells (LPS + IL4); assay type: cell-based, BALB/c mouse; conditions: Mus musculus, B-cell, 168 h; spleen B cells, LPS 10 μg/ml, IL4 100 U/ml, 7 days, enzyme-immunoassay; read-out: IC50 value, IgGl antibody production
murine thymocytes = assay: Effects on the mitogenic response by murine thymocytes (Con A stimulation, 3H-TdR uptake); assay type: cell-based, BALB/c murine; conditions: Mus musculus, Thymocyte; BALB/c thymocytes, Con A 5 μg/ml, 48 hours, 3H-TdR uptake; read-out: IC50 value, a (mitogenic response of murine thymocytes)
[4] = tested on: IgM antibody production from murine spleen B cells; assay: Effects on the IgM antibody production from murine spleen cells (LPS + IL4); assay type: cell-based, BALB/c mouse; conditions: Mus musculus, B-cell, 168 h; spleen B cells, LPS 10 μg/ml, IL4 100 U/ml, 7 days, enzyme-immunoassay; read-out: IC50 value, IgM antibody production

Row | IC50 [1] [µg/mL] | IC50 [2] [µg/mL] | IC50 [3] [µg/mL] | IC50 (murine thymocytes) [µg/mL] | IC50 [4] [µg/mL] | Structure (SMILES)
1 | 3.2 | 270 | 1 | 190 (≈ 855 µM) | 100 | O=C(O[C@H]1C=C[C@H]2CO[C@@H]1O2)c1ccco1 [Compound 17, 1,6-anhydro-3,4-dideoxy-2-O-(2-furancarbonyl)-β-D-threo-hex-3-enopyranose]
2 | 32 | 11 | 37 | 15 (≈ 117 µM) | 25 | O[C@H]1C=C[C@H]2CO[C@@H]1O2 [Compound 1, 1,6-anhydro-3,4-dideoxy-β-D-threo-hex-3-enopyranose]
3 | 320 | > 1000 | 380 | 35 (≈ 230 µM) | > 1000 | C#C[C@]1(O)C=C[C@H]2CO[C@@H]1O2 [Compound 29]
